Results on 1 substance are retold here after patent US9101160B2, “Condiments with high-potency sweetener” (The Coca-Cola Company, priority 2005, dated 2015).

The series is classed as physicochemical. On the procedure:
A solution of rebaudioside A ( >97% pure by HPLC ) was prepared in double distilled water (12.5 gm in 50 mL, 25% concentration) by stirring the mixture at 40° C. for 5 minutes. An amorphous form of rebaudioside A was formed by immediately using the clear solution for spray drying with the Lab-Plant spray drier SD-04 instrument (Lab-Plant Ltd., West Yorkshire, U.K.). The solution was fed through the feed pump into the nozzle atomizer which atomized it into a spray of droplets with the help of a constant flow of nitrogen/air. […] This dry powder (11-12 g, H2O 6.74%) was discharged continuously from the drying chamber and was collected in a bottle.

In the case of rebaudioside A [Form 4], the “solubility in water at room temperature” value is listed as more than 35.0%.
